# Measurements published in article PMC10868801, “Characterization of covalent inhibitors that disrupt the interaction between the tandem SH2 domains of SYK and FCER1G phospho-ITAM” (PLOS ONE, 2024).
# Entries after “also recorded” stand apart in the source; their conditions may differ.
# Experiments:
# [1] = test system: SYK-tSH2; set-up: method as in PMID 25287889; conditions: mass spectrometry; cited from earlier work
# [2] = biological target: T1, SYK-tSH2 (Homo sapiens, UniProt P43405); test: Covalent labelling and intact mass spectrometry; format: binding; set-up: tandem SH2 domains of human SYK (residues M6-N269); 6xHis (N, cleaved yes); made in house; host or cells: E. coli BL21(DE3)-R3-pRARE; conditions: for Number of mass adducts on SYK-tSH2 / Covalent modification of SYK-tSH2: 100 μM
# Text: The HTS hits 13 and 37 contain a kojic acid moiety, which is proposed to react covalently with proteins in the literature. As a result, we thought that it was likely these compounds are also reacting covalently with SYK-tSH2. […] When bound to the protein, these kojic acid-derived compounds have a 94 Da decrease in mass due to the loss of the pyridin-2-amine leaving group to reveal a Michael acceptor that can react covalently with cysteine residues (Fig 5B).
# To expand on the initial 40 putative hits that were identified via uHTS (Fig 3D), additional commercially available structural analogues were ordered and screened via TR-FRET and differential scanning fluorimetry (DSF) (S1 Table). […] The observation of a substantial reduction in protein melting temperature motivated us to determine if the compounds interacted covalently with the SYK-tSH2 domains. Additionally, since the thiourea in these small molecules is reported to react via oxidation, the compounds could be capable of forming a covalent disulfide bond with cysteine residues on SYK [39]. We used compound 1, which is a known covalent modifier of SYK-tSH2, as a positive control in the mass spectrometry analysis. […] Literature reports support that this type of chemical reaction can occur in DMSO, forming a disulfide bond. […] Like we had originally observed for the older DMSO stock solution of 42 (Fig 6C), 44 forms two to four mass adducts (422 Da and 844 Da) more than the protein mass when incubated SYK-tSH2 for 1 h (Fig 6D). […] Due to the mass adducts of two to four (422 Da and 844 Da), we propose that 44 is forming a disulfide bond with between two or four cysteines on SYK-tSH2 (Fig 6G).
# [3] = biological target: T2, SYK-tSH2 / FCER1G p-ITAM interaction (Homo sapiens, UniProt P43405); test: TR-FRET assay of 6xHis-SYK-tSH2 with FITC-labeled FCER1G p-ITAM peptide; format: biochemical
# T2 construct: the tSH2 domain of SYK (residues M6-N269) fused to an N-terminal 6×His tag; made in house; host or cells: E. coli BL21(DE3)-R3-pRARE
# Text: To facilitate identification of inhibitors of the SYK-FCER1G interaction, we developed a TR-FRET assay using recombinant protein comprising the tSH2 domain of SYK (residues M6-N269) fused to an N-terminal 6×His tag (S1A Fig). The TR-FRET assay is based on the interaction of a FITC-labeled FCER1G p-ITAM peptide to the 6×His-SYK-tSH2 protein in complex with a terbium-conjugated anti-His antibody (Tb-Ab) (Fig 3B). Once excited, a TR-FRET signal is generated from the Tb donor to the FITC acceptor fluorophore. […] To enable uHTS for large scale screening of small molecule libraries, we miniaturized the TR-FRET assay from 96-well plate format to a 1536-well.
# TR-FRET experiments were performed in 20 μL reactions, using 384-well shallow-well microplates (PerkinElmer). Final reaction components contained 6xHis-SYK-tSH2 (SYKA-c020 tagged) (4 nM), FITC-conjugated FCER1G peptide (8 nM), Tb-conjugated anti-6xHis antibody (53 ng/ml; Cisbio) in assay buffer containing 25 mM HEPES (pH 7.5), 200 mM NaCl, 0.1% BSA and 0.05% Tween-20. After a 2h incubation (at room temperature), TR-FRET signals were measured on a BMG Labtech PHERAstar FSX reader using a Lanthascreen Optics Module. A 200 μs delay was used after excitation with a flash lamp before measurement of fluorescence emission at […]. TR-FRET ratios of fluorescent intensity at 520 nm to 490 nm were calculated. The half maximal inhibitory concentration (IC50) was determined by fitting a four parametric logistic curve to the data.
# [4] = test system: SYK-tSH2 domains with a doubly phosphorylated ITAM from a T-cell antigen receptor ζ-chain; set-up: method as in PMID 25287889; conditions: cited from earlier work
# [5] = LCMS characterization of fresh versus older DMSO stocks; format: physicochemical; conditions: older DMSO stocks versus freshly prepared solutions
# Text: To expand on the initial 40 putative hits that were identified via uHTS (Fig 3D), additional commercially available structural analogues were ordered and screened via TR-FRET and differential scanning fluorimetry (DSF) (S1 Table). […] The observation of a substantial reduction in protein melting temperature motivated us to determine if the compounds interacted covalently with the SYK-tSH2 domains. Additionally, since the thiourea in these small molecules is reported to react via oxidation, the compounds could be capable of forming a covalent disulfide bond with cysteine residues on SYK [39]. We used compound 1, which is a known covalent modifier of SYK-tSH2, as a positive control in the mass spectrometry analysis. […] Literature reports support that this type of chemical reaction can occur in DMSO, forming a disulfide bond. […]
# Supplementary file pone.0293548.s005.tiff: S4 Fig Identification of active disulfide compounds which form in DMSO solutions of compounds 42 and 43. […] LCMS Calculated for [M+H]^+ C7H9N4O2S: 213.04; observed: 213.1 [M+H]^+. […] LCMS Calculated for [M+H]^+ C14H15N8O4S2: 423.06; observed: 423.0 [M+H]^+. […] LCMS Calculated for [M+H]^+ C10H15N4O2S: 255.08; observed: 255.1 [M+H]^+. […] LCMS Calculated for [M+H]^+ C20H27N8O4S2: 507.15; observed: 507.1 [M+H]^+. […]
# [6] = Kinetic solubility (Analiza, Inc., CLND); format: physicochemical; conditions: phosphate buffered saline, aqueous buffer, kinetic from dmso stock, PBS pH 7.4, 24 h incubation, by Analiza
# Procedure: Following 24 h incubation in a Millipore solubility filter plate, samples were vacuum filtered, and the filtrates collected for analysis. Filtrates were injected into the nitrogen detector for quantification via total chemiluminescent nitrogen determination (CLND). Filtrates were quantified with respect to a calibration curve generated using standards that span the dynamic range of the instrument. The reported solubility value has been corrected for background nitrogen present in the media and DMSO.
# [7] = biological target: T1, SYK-tSH2; test: Bio-layer interferometry (BLI) direct binding; conditions: BLI KD, biotinylated SYK-tSH2
# [8] = biological target: T3, full length SYK and FCER1G (Homo sapiens, UniProt P43405); test: GST pull-down (GST-PD) of GST-SYK and FCER1G-Flag from HEK293T cell lysates; format: biochemical; conditions: dose-response format
# T3 construct: full length GST-SYK and FCER1G-Flag were co-expressed in HEK293 cells prior to lysis; expressed in transfected cells; host or cells: HEK293T (CRL-3216, ATCC)
# Procedure: Pull-down assays were used as an orthogonal assay to determine if the compounds could disrupt the PPI between full length SYK and FCER1G proteins from cell lysates. To optimize GST pulldown assays, full length GST-SYK and FCER1G-Flag were co-expressed in HEK293 cells prior to lysis and the protein expression and cell lysate concentrations tested (Fig 4A). All 40 compounds that progressed from uHTS were tested via GST-PD at a single concentration (100 μM) to determine if they could inhibit the PPI between the full-length proteins, with the p-ITAM FCER1G peptide used as a positive control (Fig 4B). […] Compound 24 contains a promiscuous maleimide, which is well known to react indiscriminately with proteins.
# GST-, VF-tagged human SYK and FCER1G plasmids for mammalian expression were generated using Gateway cloning technology (Invitrogen) as described previously. The DNA was purified using ZymoPURE Plasmid Maxiprep Kit (D4203, Zymo Research).
# WB secondary antibodies: peroxidase-conjugated AffiniPure Goat Anti-Mouse IgG (H+L) (115-035-003, Jackson Immuno Research) 1:5000 dilution in TBST. GST pulldown was performed as described with minor changes. HEK293T (CRL-3216, ATCC) were cultured in Dulbecco’s modified Eagle’s medium with 4.5 g/L glucose, L-glutamine, and sodium pyruvate (10–013-CV, Corning) supplemented with 10% fetal bovine serum and 1% penicillin/streptomycin solution (30–002-CI, CellGro). Cells were incubated at 37°C in humidified conditions with 5% CO2. The HEK293T cells were transfected using 1 mg/mL Polyethylenimine (PEI; 23966, Polysciences) in a ratio of 3 μL to 1 μg DNA. The proteins were expressed for 48 h at 37°C. Cell pellets were re-suspended in the SYK lysis buffer (25 mM HEPES, pH 7.5, 200 mM NaCl, 0.5% Triton X100 (T9284-1L, Sigma-Aldrich), followed by sonication for 10 s (5 s on, 5 s off) at 4°C. Cells were pelleted by 10 min centrifugation at 13,000 rpm at 4°C. The cleared lysates were first pre-incubated with compounds for 30 min and then incubated with glutathione sepharose 4B beads (17075605, Cytiva Sweden AB) at 4°C for 2 h with rotation. After the incubation, beads were washed three times with the SYK lysis buffer, eluted by boiling in sodium dodecyl sulfate-polyacrylamide gel electrophoresis (SDS–PAGE) loading buffer (1610737, Bio-Rad), and analyzed by western blotting.
# [9] = biological target: MSN (Homo sapiens, UniProt P26038); test: Covalent labelling and intact mass spectrometry (selectivity); conditions: 1 h, room temperature
# Chain of MSN (P26038 whole entry, species assumed): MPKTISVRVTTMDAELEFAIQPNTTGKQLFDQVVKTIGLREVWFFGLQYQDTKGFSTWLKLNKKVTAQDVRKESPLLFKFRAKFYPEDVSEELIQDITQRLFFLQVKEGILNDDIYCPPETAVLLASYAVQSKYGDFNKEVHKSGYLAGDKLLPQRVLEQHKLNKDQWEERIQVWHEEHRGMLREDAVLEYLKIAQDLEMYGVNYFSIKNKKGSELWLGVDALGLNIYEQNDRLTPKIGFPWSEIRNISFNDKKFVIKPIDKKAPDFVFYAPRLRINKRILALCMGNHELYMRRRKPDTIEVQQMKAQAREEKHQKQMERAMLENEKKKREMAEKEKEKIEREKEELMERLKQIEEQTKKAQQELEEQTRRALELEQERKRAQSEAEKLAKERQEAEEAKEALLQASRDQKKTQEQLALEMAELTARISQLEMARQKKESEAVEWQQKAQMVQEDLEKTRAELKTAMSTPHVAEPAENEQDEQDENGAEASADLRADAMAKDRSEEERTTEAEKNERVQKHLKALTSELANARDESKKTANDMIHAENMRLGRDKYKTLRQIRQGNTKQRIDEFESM
SMILES,Number of cysteines on SYK-tSH2 bound [1],"Number of mass adducts on SYK-tSH2 ([2]; 1 h, room temperature)",Interference with the TR-FRET assay [3],Inhibition of p-ITAM binding with mutated SYK-tSH2 ([4]; Cys206 mutated to serine or alanine),Disruption of SYK-tSH2 binding to doubly phosphorylated ITAM ([4]; fluorescence polarization inhibition assay),Stability in DMSO stock solution [5],solubility kinetic at 24 h [6] [µM],Kd [7] [µM],"Covalent modification of SYK-tSH2 ([2]; 1 h, freshly prepared DMSO stock)","Number of mass adducts on SYK-tSH2 ([2]; 1 h, older DMSO stock solution)","Covalent modification of SYK-tSH2 ([2]; 1 h, older DMSO stock solutions)",IC50 [3] [µM],PPI disruption in GST-PD [8],Mass adducts on MSN ([9]; 30 μM),"Number of mass adducts on MSN ([9]; 100 μM, four available cysteines)","Compound concentration giving 50% labeling of SYK-tSH2 ([2]; 10 μM SYK-tSH2, dose-response by mass spectrometry) [µM]","Mass adducts on SYK ([2]; 30 μM, 1 h, room temperature)",melting point [°C]
O=[N+]([O-])c1c(NCCO)cc(Cl)c2nonc12 [compound 1],4,one or two,quenching the TR-FRET donor signal,complete loss of inhibition,disrupt the binding,–,–,–,–,–,–,–,–,–,–,–,–,–
"Cn1c(=O)c2[nH]c(=S)[nH]c2n(C)c1=O [compound 42, 1,3-dimethyl-8-thioxo-3,7,8,9-tetrahydro-1H-purine-2,6-dione]",–,–,–,–,–,had formed corresponding disulfide dimers in DMSO over time,208,99 ± 0.8,did not form a covalent adduct,two,covalently modifies SYK-tSH2,1.9 ± 0.2,–,–,–,–,–,–
"Cn1c(=O)c2[nH]c(SSc3nc4c([nH]3)c(=O)n(C)c(=O)n4C)nc2n(C)c1=O [compound 44, 8,8’-disulfanediylbis(1,3-dimethyl-3,7-dihydro-1H-purine-2,6-dione)]",–,two to four,–,–,–,–,70.9,–,–,–,–,–,disrupted the PPI; also recorded: able to disrupt the full-length interaction,same formation of mass adducts as 100 μM incubation,two mass adducts,30,same formation of mass adducts as 100 μM incubation,> 300
